Test results taken from the OPERA property sets (Mansouri et al. 2018).
Peptide text beside a SMILES is read from it.

Structure (SMILES)	logP
O=NN1CCNCC1	0.18
C=C(Br)CC1(C(C)C)C(=O)NC(=O)NC1=O	1.47
O=Cc1ccco1	0.41
CC1(c2ccccc2)NC(=O)NC1=O (stereo unspecified)	1.02
COc1cccc2c1C(=N)c1c(O)c3c(c(O)c1C2=O)CC(O)(C(=O)CO)CC3OC1CC(N2CCOCC2C#N)C(O)C(C)O1 (stereo unspecified)	1.97
CN(C)C1=CC(=O)C(N(C)C)=CC1=O	1.03
CC(=O)Nc1cccc(C)c1	1.68
Cc1cccnc1	1.2
CC1(C)SC2C(NC(=O)C(C(=O)Oc3ccccc3)c3ccccc3)C(=O)N2C1C(=O)O (stereo unspecified)	3.14
COP(=O)(OC)O/C(C)=C/C(=O)N(C)C	0
CCCOc1ccc([N+](=O)[O-])c(S(C)(=O)=O)c1	1.1
CCCC(=NOCC)C1C(=O)CC2(CCC(C)CC2)OC1=O (stereo unspecified)	4.07
CCN(CC)C(=S)SSC(=S)N(CC)CC	3.88
COc1ccccc1NCC(N)=O	0.78
O=C(Nc1ncnc2c1ncn2[C@@H]1O[C@H](CO)[C@@H](O)[C@H]1O)c1ccccc1	-0.1
CCOc1ccc(OC(=O)NC)cc1	1.63
O=C(O)c1cc(O)cc(O)c1	0.86
CC(=O)Nc1ccncc1	0.5
NC(=O)c1cccc(O)c1	0.39
CC1COC(=O)O1 (stereo unspecified)	-0.41
CCCNc1nc(NC(C)C)nc(SC(F)F)n1	4.23
O=C(c1ccccc1)c1ccc(NS(=O)(=O)C(F)(F)F)cc1	4.28
CCCCC(=O)OCC1CCC(n2cnc3c(=O)[nH]cnc32)O1 (stereo unspecified)	0.65

Structure (SMILES)	logP
O=I(=O)c1ccccc1	-1.33
CC(=O)NC(C)C(=O)NC(Cc1ccc(O)cc1)C(=O)NC(Cc1ccccc1)C(N)=O (stereo not drawn) (Ac-Ala-Tyr-Phe-NH2; configuration not given here)	0.26
CN(C)C(N(C)C)=S(I)c1ccc(Cl)cc1[N+](=O)[O-] (stereo unspecified)	-0.09
Cc1ccncc1	1.22
CC(C)c1cnc([N+](=O)[O-])n1C	1.09
CCc1cccc2cccnc12	2.93
CCOCCOCC	0.66
COc1ccccc1	2.11
NNC(=O)c1cccc(I)c1	1.53
CC1CC2OC(=O)C(C)C2C(OC(=O)CC(=O)OC2C3C(CC(C)C4CCC(=O)C42C)OC(=O)C3C)C2(C)C(=O)CCC12 (stereo unspecified)	0.76
CC[C@H](C)[C@H](NC(=O)[C@H](Cc1c[nH]c2ccccc12)NC(C)=O)C(=O)NCC(N)=O (Ac-Trp-Ile-Gly-NH2)	0.62
O=S(=O)(O)c1cc(O)c2ccccc2c1	-0.18
CCOc1c(NS(=O)(=O)c2ccc(N)cc2)ncnc1OC	1.03
OC[C@H]1O[C@@H](n2cnc3c(O)ncnc32)[C@H](O)[C@@H]1O	-2.1
COC(=O)c1ccc(NC(C)=O)cc1	1.79
Nc1cccc(OC(=O)c2ccc(N)cc2O)c1	2.08
c1ccc(SSc2ccccc2)cc1	4.41
Cc1cc(O)ccc1Cl	3.1
O=[N+]([O-])c1ccccc1Br	2.52
CCN(CC)c1nc(C)cc(OP(=S)(OC)OC)n1	4.2
NC(=O)C(=Cc1cccc(F)c1)C(N)=O	0.1
c1ccc(-c2ccncc2)nc1	1.58
CN(C)/N=N/c1ccc2n[nH]cc2c1	2.36

Structure (SMILES)	logP
OCc1ccccc1O	0.73
O=CNc1ccc(Cl)cc1	2.04
CN(C)N=Nc1cccc2oc3ccccc3c12	4.55
NCCCC[C@H](N)C(=O)O	-3.05
C[C@]12CCC(=O)C=C1C=C[C@@H]1[C@@H]2CC[C@@]2(C)[C@H]1CC[C@@]21CCC(=O)O1	2.68
C1CC1	1.72
NC(=O)c1ccc([N+](=O)[O-])cc1	0.82
Nc1cc2c3ccccc3ccc2c2ccccc12	4.99
NC(=O)N/N=C/c1ccc([N+](=O)[O-])o1	0.23
COc1ccc2cc(C(C)C(=O)OCC(=O)N(C)CC(N)=O)ccc2c1 (stereo unspecified)	1.37
O=[N+]([O-])C=Cc1ccc(Cl)cc1	2.44
Cc1ccc(COC(N)=O)cc1	1.76
COc1cccc(O)c1	1.34
NC(Cc1c[nH]c2ccccc12)C(=O)O (racemic)	-1.05
CN1C(=O)CCC1=O	-0.95
Nc1ccc(C(=O)O)c(I)c1	1.65
CC(C)CCC(=O)c1ccoc1	2.76
OC1(c2ccc(Cl)cc2)CCN(CCCC2(c3ccc(F)cc3)OCCO2)CC1	3.84
CCCCCOCc1cccc(NC(=O)OCCN2CCCCC2)c1	4.2
C[C@]1(O)CC[C@H]2[C@@H]3CCC4=CC(=O)CC[C@@H]4[C@H]3CC[C@@]21C	2.99
C=C(C=O)CC	1.24
CCOC(=O)c1ccc([N+](=O)[O-])cc1	2.33
Brc1cc(Br)cc(Br)c1	4.51

Structure (SMILES)	logP
O=C(O)COc1ccc(S(=O)(=O)F)cc1	1.82
CC(=O)OCC(=O)[C@@]1(O)CC[C@H]2[C@@H]3CCC4=CC(=O)CC[C@]4(C)[C@H]3C(=O)C[C@@]21C	2.1
CCOC(=O)N(C)C	0.89
CC(=O)c1ccccc1N	1.63
CC1CCCC(C)N1 (stereo unspecified)	1.53
CNC(=O)Oc1cc(C)c(Cl)cc1Cl	3
CN(C)c1cccc2c(S(N)(=O)=O)cccc12	2.01
CC(=O)NCC(=O)N[C@@H](Cc1ccccc1)C(N)=O (Ac-Gly-Phe-NH2)	-0.56
COC(=O)c1ccccc1C(=O)O	1.13
Cc1cccc2c(N)cnnc12	1.57
CCOC(=O)CNC(=O)CNC(=O)CCCCSc1ncnc2nc[nH]c12	0.5
O=[N+]([O-])c1cccc(CO)c1	1.21
O=C1OC(=O)c2ccccc21	1.6
NS(=O)(=O)c1ccc([N+](=O)[O-])cc1	0.64
Cn1c(N)nc2cc(Cl)c(Cl)cc21	2.98
OCCCc1ccccc1	1.88
CC1(O)CC23C(O)C1CCC2(O)C(C)(O)C1C2OC2C(C)(C)C1(O)C(O)C3O (stereo unspecified)	-0.57
O=C1C=CC(=NBr)C=C1	1.12
CSc1ccc(C(=O)O)cc1	2.74
CNC(=O)Oc1ccccc1[N+](=O)[O-]	1.02
CC(=O)Oc1ccccc1C(F)(F)F	2.59
Brc1c(Br)c(Br)c(Br)c(Br)c1Br	6.07
CNC(=O)OCc1cccc(COC(=O)NC)n1	0.24

Structure (SMILES)	logP
O=C(CN1CCCCC1)Nc1cccc(F)c1	2.85
CC(C)OC(=O)Nc1cccc(Cl)c1	3.51
COc1ccc(CC(=O)O)cc1	1.42
CNc1cnn(-c2cccc(C(F)(F)F)c2)c(=O)c1Cl	2.3
N#Cc1ccnc2ccccc12	1.98
O=C(O)c1ccccc1I	2.4
COc1c(C)cccc1C	3.02
CCCOc1cccc(C=C(C(C)=O)C(=O)OCC)c1	3.34
Oc1ccc(Cl)c2cccnc12	2.88
Oc1nc2ccccc2[nH]1	1.12
Nc1cccc([N+](=O)[O-])c1N	1.27
N#CC(C(=O)NC(CO)C(O)c1ccc([N+](=O)[O-])cc1)c1ccccc1 (stereo unspecified)	1.47
CCO[Si](C)(C)OCC	0.61
CC(Cl)C(=O)NC(CO)C(O)c1ccc([N+](=O)[O-])cc1 (stereo unspecified)	0.98
COc1cccc(CNC(=O)C2(O)C(C)CC3C4CCC5=CC(=O)C=CC5(C)C4(F)C(O)CC32C)c1 (stereo unspecified)	3.27
COc1cc([C@@H]2c3cc4c(cc3C(O[C@@H]3O[C@@H]5COC(c6cccs6)O[C@H]5[C@H](O)[C@H]3O)C3COC(=O)[C@@H]32)OCO4)cc(OC)c1O (stereo partly specified)	1.24
CC(C)c1ccccc1OCC(=O)O	2.84
O=C(O)c1ccc(CO)cc1	0.93
c1cncc(CN2CCCC2)c1	1.1
COc1ccc(C=CC(=O)O)cc1	2.68
Clc1ccccn1	1.22
OC(CNCC(O)COc1ccccc1)COc1ccccc1 (stereo unspecified)	2.52
Cc1cccc(N(C)C)c1	2.8

Structure (SMILES)	logP
NC(=S)NN=Cc1ccccc1	1.86
CN(C)N=Nc1nc[nH]c1C(N)=O	-0.24
O=C(O)Cc1ccc(I)cc1	2.64
CC[C@H](C)[C@H](NC(C)=O)C(=O)N[C@@H](CC(N)=O)C(N)=O (Ac-Ile-Asn-NH2)	-1.41
O=C(O)COc1cccc(C(F)(F)F)c1	2.36
Cc1cnnc2ccc(Cl)cc12	1.96
NC(C(=O)O)c1ccccc1 (stereo unspecified)	-1.7
O=P1(NCCCl)OCCCN1CCCl (stereo unspecified)	0.86
CCCCCCCCO	3
ON=Cc1ccncc1	0.77
O=C(OCc1ccccc1)n1c(=O)[nH]cc(F)c1=O	1.42
CNC1CC2CCC1c1ccccc12 (stereo unspecified)	2.68
O=C1C=C(Cl)C(=O)c2ccccc21	2.29
Cn1c(=O)n(C)c2ccccc21	1.46
COc1cccc(C)c1	2.66
O=S1(=O)OCC2C(CO1)C1(Cl)C(Cl)=C(Cl)C2(Cl)C1(Cl)Cl (stereo unspecified)	3.66
CC(=O)c1csc2ccccc12	2.78
CCOc1ccc2nc(S(N)(=O)=O)sc2c1	2.01
CN(C)c1ccc(Cl)nn1	0.98
Cc1ccc(N)c(C)c1	1.68
CC(=O)CC(=O)C(C)(C)C	1.67
NC(=O)c1[nH]cnc1N	-1.1
COc1ccccc1C=C(C(C)=O)C(C)=O	1.73

Structure (SMILES)	logP
O=C(O)c1ccccc1S	2.39
CCOP(=S)(OCC)SCSC(C)(C)C	4.48
N=C(N)NC(=O)Nc1ccc(Cl)cc1	1.78
NS(=O)(=O)c1ccc(C(=O)O)cc1	0.5
c1ccc(C23CCN(CC2)CC3)cc1	2.54
CCCNc1nc(NC)nc(SC(F)F)n1	3.28
O=C(O)CSCc1ccccc1	2.1
Nc1ccc(C(=O)Oc2ccc(Cl)cc2)c(O)c1	3.6
CCCNC(C)C(=O)Nc1ccccc1C (stereo unspecified)	2.11
CN(C)C(=O)C(C(=O)N(C)C)C(=O)N(C)C	-3.09
CNC(=O)Oc1ccccc1C1OCCO1	0.67
NS(=O)(=O)c1ccc(S(N)(=O)=O)cc1	-0.96
CC(=O)Nc1ccc(O)cc1C	0.17
CCOC(=O)C=Cc1ccccc1	2.99
Cc1ccc(-c2nc(N)nc(N)n2)cc1	1.92
CS(=O)(=O)c1cccc([N+](=O)[O-])c1	0.5
CCCc1ccc(C(=O)OCCN(C)C)cc1	3.63
CN(C1CCCCC1)C1CCCCC1	3.71
